Experimental data: patent US7786097B2, “Tricyclic compounds, compositions and methods” (Pfizer Inc., priority 2007, dated 2010)

Experiments:
[1] = system: IL-1β production in human whole blood; assay: Ex vivo LPS-stimulated human whole blood, IL-1β; format: cell-based; conditions: LPS 100 ng/ml, 22 hours, one donor
Procedure: (§1) Venous blood from human donors was collected as 10 ml aliquots in tubes containing sodium heparin (BD Vacutainer from Becton Dickinson and Company, Franklin Lakes, N.Y.). Blood was added to sterile polystyrene round bottom 96-well tissue culture plates (Corning Costar) at 100 μl/well, omitting the outside wells. Media (RPMI Medium 1640 with L-glutamine, Invitrogen Corporation, Carlsbad, Calif.) was added to the blood in 90 μl aliquots for a total volume of 190 μl. Outside wells were filled with 200 μl of media. Blood was placed in a humidified 37° C. incubator with 5% CO2 while compounds were prepared (nearly 60 minutes).
(§2) Compounds were prepared from 10 mM stock solutions in dimethylsulfoxide (DMSO, Sigma-Aldrich). […] Final DMSO and ethanol concentrations in the assay were 0.1% and 1.5%. The samples were gently triturated twice to mix and replaced in the incubator. LPS stock (E. coli serotype 0111:B4, Sigma-Aldrich), stored in aliquots of 100 μg/ml in RPMI at −20° C., was diluted 1/50 in RPMI to make a working stock solution. After 60 minutes of incubation, 10 μl of the prepared LPS working stock was added to the blood to a final concentration of 100 ng/ml, omitting wells to be used as negative control. The samples were again gently triturated and the plates incubated overnight for 22 hours. Following incubation, the blood was centrifuged at 1500×g for 5 minutes and the plasma removed to either freeze at −20° C. or assay for cytokine release.
(§3) IL-1β, IFNγ, IL-6, and TNFα protein levels were measured using Meso Scale assay kits (Meso Scale Discovery, Gaithersburg, Md.). Reagents were allowed to come to room temperature. Meso Scale plates were blocked with 30 μl of human plasma/serum assay diluent with gentle shaking for 60 minutes at room temperature. Plates were washed 3× with wash buffer (PBS, Invitrogen Corporation, with 0.05% Tween-20, Sigma-Aldrich). Calibrators for standard curves were prepared in human plasma/serum assay diluent as a […] serial dilution to achieve final concentrations ranging from 50000 pg/ml to 3.2 pg/ml. Samples and calibrators were added at 20 μl/well, then incubated at room temperature with gentle shaking for 90 minutes. Plates were again washed 3 times with wash buffer. Detection antibody was diluted in human plasma/serum antibody diluent to 1 μg/ml and added to the plate at 20 μl/well. Plates were incubated as before for 60 minutes and washed again. Read Buffer T<4×) was diluted 1:1 with mqH2O to 2 times concentration and 150 μl added to each well. Plates were analyzed on the SECTOR Imager 6000 (Meso Scale Discovery) to generate raw signal values.
(§4) IL-1β, IFN-γ, IL-6, and TNFα sample values were verified to be within the calibrator standard curves. Individual values were compared to positive and negative controls (vehicle treated blood with LPS and vehicle treated blood without LPS, respectively) to generate % inhibition. Triplicate values were averaged for each donor. The values for two donors were averaged (only one donor was used for IL-1β) and graphed using 4-parameter fit curves in the GraFit 5.0.11 application.

[2] = system: Cortical bone formation rate (BFR); assay: Cortical bone histomorphometry, bone formation rate (BFR); format: in vivo; conditions: AUC 0-4 hr, mice
Procedure: During the in-life portion of each study, mice received two intraperitoneal (i.p.) injections (20 mg/kg, […]) of calcein (C-0875; Sigma-Aldrich, St. Louis, Mo.) on days 1 and 26 for bone histomorphometry measurements. Calcein incorporates into the bone mineral and allows measurement of bone formation rate. Calcein was dissolved in 2% sodium bicarbonate. During the tissue harvest, the left tibiae were excised and cleaned for cortical histomorphometry measurements. After all skin and muscle were removed, tibiae were placed in 70% ethanol 4° C.) in the dark for a minimum of 24 hours.
Ground transverse sections were used for histomorphometric analysis of cortical bone. Bones were sectioned using a low-speed saw (Isomet, Buehler, Lake Bluff, Ill.) equipped with a diamond wafer blade. The end of each tibia was removed proximal to tibia-fibula synostosis and a […] cross-section was cut. Using a roughened glass plate and a cork, sections were ground to […] until transparent and all labels were distinguishable under a fluorescent microscope. Sections were dehydrated using the following solutions for a minimum of two minutes each: 1) 70% ethanol, 2) 95% ethanol, 3) 100% ethanol, 4) 50/50 ethanol/xylene, and 5) xylene (twice) (#534056; Sigma-Aldrich, St. Louis, Mo.). Sections were mounted using Eukitt Quick Mounting Medium (#03989, Sigma-Aldrich, St. Louis, Mo.) after which coverslip was applied. Using the Osteomeasure Bone Analysis Program (Osteometrics, Inc., Decatur, Ga.), bone formation rate was calculated by tracing the 1st and […] fluorescent labels and the inner and outer perimeter of the bone. Bone formation rate was calculated by the following equation: (Inter-label width/Label interval)*(Labeled perimeter/Bone perimeter). At least five samples were measured from each treatment group in each study.

[3] = system: IL-6 levels in Human A549 lung epithelial cells; assay: IL-1β-stimulated IL-6 in A549 cells; format: cell-based; conditions: additional results (footnote a)
Procedure: IL-6 IC50 and % Inhibition
Human A549 lung epithelial cells (American Type Culture Collection, Rockville, Md.) were cultured in Kaighn's F-12K medium with penicillin-streptomycin (10 U/mL) and 10% heat-inactivated fetal bovine serum (all from Invitrogen, Grand Island, N.Y.). A549 cells were plated at a density of 30,000 cells/well in 96-well plates and incubated overnight at 37° C. and with 5% CO2. The cells were serum-starved by replacing the growth medium with serum-free Kaighn's F-12K medium with penicillin-streptomycin (10 U/mL) and, again, incubating overnight at 37° C. and with 5% CO2. On the third day, the medium was replaced with fresh serum-free medium and the cells were incubated with or without compound (vehicle was DMSO at 0.1% maximum concentration) for approximately 1 hour and then stimulated with 1 ng/mL recombinant human IL-1β (R&D Systems, Minneapolis, Minn.) for 20 hours at 37° C. and with 5% CO2. Cell supernatants were collected for determination of IL-6 levels using MSD (Meso Scale Discovery, Gaithersburg, Md.) 96-well Single Spot plates as per the manufacturer's instructions. Plates were read with an MSD Sector Imager 6000. […] Vehicle was used to define the 0% inhibition control. Percent inhibition for each compound concentration, relative to these controls, was calculated using Excel (Microsoft, Redmond, Wash.). […]

[4] = system: IFNγ production in human whole blood; assay: Ex vivo LPS-stimulated human whole blood, IFNγ; format: cell-based; conditions: LPS 100 ng/ml, 22 hours, mean of two donors
Procedure: as §1, §2, §3, §4

C[C@]12C=CC(=O)C=C1CC[C@@H]1[C@@H]2[C@@H](O)C[C@@]2(C)[C@H]1CC[C@]2(O)C(=O)CO [Prednisolone]
inhibition at 0.000457247 µM ([1]; 0.457247 nM): 9.65%
inhibition at 0.00137174 µM ([1]; 1.371742 nM): 15.1%
inhibition at 0.00411523 µM ([1]; 4.115226 nM): 21%
inhibition at 0.0123457 µM ([1]; 12.34568 nM): 33.6%
inhibition at 0.037037 µM ([1]; 37.03704 nM): 37.7%
inhibition at 0.111111 µM ([1]; 111.1111 nM): 73.2%
inhibition at 0.333333 µM ([1]; 333.3333 nM): 92.9%
inhibition at 1 µM ([1]; 1000 nM): 94.9%
Cortical bone formation rate (BFR) EAUC50 [2]: 90 ng·h/mL
Cortical bone formation rate (BFR) EAUC80 [2]: 600 ng·h/mL
IL-6 % Inhibition [3]: 100%
inhibition at 0.000457247 µM ([4]; 0.457247 nM): 4.93%
inhibition at 0.00137174 µM ([4]; 1.371742 nM): 10.9%
inhibition at 0.00411523 µM ([4]; 4.115226 nM): 5.16%
inhibition at 0.0123457 µM ([4]; 12.34568 nM): 25.7%
inhibition at 0.037037 µM ([4]; 37.03704 nM): 63.5%
inhibition at 0.111111 µM ([4]; 111.1111 nM): 95%
inhibition at 0.333333 µM ([4]; 333.3333 nM): 99.8%
inhibition at 1 µM ([4]; 1000 nM): 100%
